For orientation: IC50 means the concentration needed to halve the response being measured. What is called Kd is the concentration at which binding is half-saturated. High values mean lower affinity, low ones higher affinity.

The values that follow come from patent US9938261B2, “Heterocyclic compounds and methods of use thereof” (AMBIT BIOSCIENCES CORPORATION, priority 2011, dated 2018).

Like-named read-outs stand apart in the source and are kept apart here. A value given as a limit tells only on which side of the number the result lay.

For test [1], the target named is T1, CSF1R (Homo sapiens, UniProt P07333). Kind of test: HEK293 CSF1R phosphorylation MSD assay. It is filed as cell-based. Also noted: expressed in transfected cells; host or cells: HEK293. Conditions: read-out: HEK293 pCSF1R M-CSF MSD:IC50. A digest of the protocol:
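HEK293 cells expressing CSF1R-FKBP were pretreated 2 h at 37° C with 9 half-log concentrations of compound (0.5% DMSO final), then stimulated 5 min with 50 ng/mL human M-CSF. Lysates captured on biotin-FK506 plates; phosphotyrosine detected by MSD electrochemiluminescence. IC50 versus DMSO, averaged from duplicate plates.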

A further test concerns the target T2, PDGFRβ (Homo sapiens, UniProt P09619).
T2 construct: made in house
Kind of test: Competition binding assay, PDGFRβ Kd. In a few lines:
(§1)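 First, biotinylated affinity ligands were loaded onto streptavidin magnetic beads and blocked. Kinase, beads and compound were then equilibrated 1 hour at room temperature, washed, and eluted with non-biotinylated ligand. Eluted kinase was measured by qPCR, with Kd fitted from an eleven-point threefold dilution series.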

The target in the next test is T3, KIT (Homo sapiens, UniProt P10721).
T3 construct: made in house
Kind of test: Competition binding assay, KIT Kd. A digest of the protocol: as §1

Test [2] has as its target T1, CSF1R. Kind of test: Competition binding assay, CSF1R Kd. Further details: made in house. A digest of the protocol: as §1
Another test deals with M-NFS-60 cells. The test is described as follows: M-NFS-60 cell proliferation assay (Alamar Blue). It is filed as cell-based, mouse. Particulars: read-out: CSF1R M-NFS-60 CTB:IC50. In a few lines:
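Mouse M-NFS-60 cells growing on 20 ng/mL M-CSF in RPMI/10% FBS were exposed to compounds (9 half-log concentrations, 0.5% DMSO) for 72 h at 37 °C. Viability read by Alamar Blue fluorescence (ex 560/em 590 nm, 3 h). IC50 = 50% proliferation inhibition versus control, mean of duplicates.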
On the technique in general: The colour change of resazurin is a common sign of viable cells or microbes.

The target in the next test is T4, FLT3 (Homo sapiens, UniProt P36888).
T4 construct: made in house
T4 sequence (P36888 27-993): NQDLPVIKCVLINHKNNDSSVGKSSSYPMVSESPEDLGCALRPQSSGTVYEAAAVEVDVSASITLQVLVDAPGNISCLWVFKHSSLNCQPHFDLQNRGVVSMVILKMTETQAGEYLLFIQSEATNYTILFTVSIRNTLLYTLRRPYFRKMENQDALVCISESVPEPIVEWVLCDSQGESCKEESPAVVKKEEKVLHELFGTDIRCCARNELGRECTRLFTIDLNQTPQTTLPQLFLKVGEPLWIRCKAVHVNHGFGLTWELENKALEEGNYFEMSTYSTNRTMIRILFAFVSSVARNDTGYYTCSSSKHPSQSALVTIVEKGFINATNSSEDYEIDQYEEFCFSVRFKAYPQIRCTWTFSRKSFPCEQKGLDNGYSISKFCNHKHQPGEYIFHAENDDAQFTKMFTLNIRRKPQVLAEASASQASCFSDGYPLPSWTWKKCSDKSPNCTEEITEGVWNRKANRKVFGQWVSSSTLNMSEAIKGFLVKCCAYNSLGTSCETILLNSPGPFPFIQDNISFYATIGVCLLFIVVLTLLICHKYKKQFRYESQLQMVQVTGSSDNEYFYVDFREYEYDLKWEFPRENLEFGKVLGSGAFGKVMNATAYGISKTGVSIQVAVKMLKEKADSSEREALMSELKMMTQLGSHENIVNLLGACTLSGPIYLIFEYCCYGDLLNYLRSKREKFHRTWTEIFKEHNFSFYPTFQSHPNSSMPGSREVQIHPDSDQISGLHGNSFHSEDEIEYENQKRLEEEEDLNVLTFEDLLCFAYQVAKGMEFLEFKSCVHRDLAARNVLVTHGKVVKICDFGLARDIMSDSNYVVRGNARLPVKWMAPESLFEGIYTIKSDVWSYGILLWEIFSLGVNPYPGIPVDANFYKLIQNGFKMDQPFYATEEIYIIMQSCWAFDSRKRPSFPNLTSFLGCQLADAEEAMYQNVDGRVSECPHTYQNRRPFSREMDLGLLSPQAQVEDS
Kind of test: Competition binding assay, FLT3 Kd. A digest of the protocol:
as §1

Where [3] appears, read: HEK293 cells, M-CSF stimulated CSF1R phosphorylation, MSD.
Where [4] appears, read: Mus musculus, M-NFS-60 cell proliferation.

T1 sequence (P07333 20-972): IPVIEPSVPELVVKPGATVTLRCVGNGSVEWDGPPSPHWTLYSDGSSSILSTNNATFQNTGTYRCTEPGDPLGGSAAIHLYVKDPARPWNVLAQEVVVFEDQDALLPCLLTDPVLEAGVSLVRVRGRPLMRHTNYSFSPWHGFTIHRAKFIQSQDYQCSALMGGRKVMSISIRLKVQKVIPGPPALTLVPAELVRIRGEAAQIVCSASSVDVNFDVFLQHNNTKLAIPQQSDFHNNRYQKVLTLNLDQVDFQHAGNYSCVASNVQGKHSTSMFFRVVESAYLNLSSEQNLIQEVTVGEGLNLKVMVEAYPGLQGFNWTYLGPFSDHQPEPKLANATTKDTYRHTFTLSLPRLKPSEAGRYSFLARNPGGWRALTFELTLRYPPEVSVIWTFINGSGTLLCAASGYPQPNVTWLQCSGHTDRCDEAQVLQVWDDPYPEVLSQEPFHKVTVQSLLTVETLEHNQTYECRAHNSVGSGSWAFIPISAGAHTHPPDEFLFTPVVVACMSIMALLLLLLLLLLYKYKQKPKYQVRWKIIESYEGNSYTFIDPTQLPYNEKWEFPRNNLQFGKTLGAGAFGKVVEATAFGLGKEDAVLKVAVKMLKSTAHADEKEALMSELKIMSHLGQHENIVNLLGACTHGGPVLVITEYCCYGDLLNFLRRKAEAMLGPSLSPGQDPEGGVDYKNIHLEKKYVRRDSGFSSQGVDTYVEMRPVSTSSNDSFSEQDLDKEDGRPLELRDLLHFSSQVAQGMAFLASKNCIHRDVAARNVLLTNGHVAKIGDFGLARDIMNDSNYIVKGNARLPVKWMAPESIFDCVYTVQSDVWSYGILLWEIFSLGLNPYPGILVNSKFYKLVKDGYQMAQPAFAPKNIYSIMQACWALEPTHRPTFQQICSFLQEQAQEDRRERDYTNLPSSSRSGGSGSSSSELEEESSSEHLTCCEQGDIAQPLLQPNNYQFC
T3 sequence (P10721 26-976): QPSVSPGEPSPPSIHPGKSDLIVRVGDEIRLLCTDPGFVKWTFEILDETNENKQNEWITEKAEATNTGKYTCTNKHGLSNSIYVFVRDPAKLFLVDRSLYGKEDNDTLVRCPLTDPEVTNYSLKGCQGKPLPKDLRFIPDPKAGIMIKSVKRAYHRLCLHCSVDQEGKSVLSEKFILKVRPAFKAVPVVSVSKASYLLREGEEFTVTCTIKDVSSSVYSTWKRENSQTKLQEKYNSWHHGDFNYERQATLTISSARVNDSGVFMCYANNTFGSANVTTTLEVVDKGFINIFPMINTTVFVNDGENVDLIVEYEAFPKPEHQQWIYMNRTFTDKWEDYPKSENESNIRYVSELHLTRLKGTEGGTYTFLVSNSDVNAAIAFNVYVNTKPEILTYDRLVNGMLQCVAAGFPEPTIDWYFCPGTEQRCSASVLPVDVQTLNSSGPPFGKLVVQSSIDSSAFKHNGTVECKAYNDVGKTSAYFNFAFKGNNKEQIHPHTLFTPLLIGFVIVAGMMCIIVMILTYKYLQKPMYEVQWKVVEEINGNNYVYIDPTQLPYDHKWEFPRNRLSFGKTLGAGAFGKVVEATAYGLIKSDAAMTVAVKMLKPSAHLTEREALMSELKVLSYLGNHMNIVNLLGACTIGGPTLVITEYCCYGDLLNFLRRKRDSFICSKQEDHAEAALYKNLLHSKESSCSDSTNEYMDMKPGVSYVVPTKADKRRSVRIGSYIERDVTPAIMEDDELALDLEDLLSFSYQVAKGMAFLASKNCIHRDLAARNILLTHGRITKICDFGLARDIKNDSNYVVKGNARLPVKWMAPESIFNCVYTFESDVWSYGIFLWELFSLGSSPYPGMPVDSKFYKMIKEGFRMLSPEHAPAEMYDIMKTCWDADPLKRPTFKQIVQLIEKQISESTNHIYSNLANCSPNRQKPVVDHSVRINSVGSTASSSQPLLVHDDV
T2 sequence (P09619 33-1106): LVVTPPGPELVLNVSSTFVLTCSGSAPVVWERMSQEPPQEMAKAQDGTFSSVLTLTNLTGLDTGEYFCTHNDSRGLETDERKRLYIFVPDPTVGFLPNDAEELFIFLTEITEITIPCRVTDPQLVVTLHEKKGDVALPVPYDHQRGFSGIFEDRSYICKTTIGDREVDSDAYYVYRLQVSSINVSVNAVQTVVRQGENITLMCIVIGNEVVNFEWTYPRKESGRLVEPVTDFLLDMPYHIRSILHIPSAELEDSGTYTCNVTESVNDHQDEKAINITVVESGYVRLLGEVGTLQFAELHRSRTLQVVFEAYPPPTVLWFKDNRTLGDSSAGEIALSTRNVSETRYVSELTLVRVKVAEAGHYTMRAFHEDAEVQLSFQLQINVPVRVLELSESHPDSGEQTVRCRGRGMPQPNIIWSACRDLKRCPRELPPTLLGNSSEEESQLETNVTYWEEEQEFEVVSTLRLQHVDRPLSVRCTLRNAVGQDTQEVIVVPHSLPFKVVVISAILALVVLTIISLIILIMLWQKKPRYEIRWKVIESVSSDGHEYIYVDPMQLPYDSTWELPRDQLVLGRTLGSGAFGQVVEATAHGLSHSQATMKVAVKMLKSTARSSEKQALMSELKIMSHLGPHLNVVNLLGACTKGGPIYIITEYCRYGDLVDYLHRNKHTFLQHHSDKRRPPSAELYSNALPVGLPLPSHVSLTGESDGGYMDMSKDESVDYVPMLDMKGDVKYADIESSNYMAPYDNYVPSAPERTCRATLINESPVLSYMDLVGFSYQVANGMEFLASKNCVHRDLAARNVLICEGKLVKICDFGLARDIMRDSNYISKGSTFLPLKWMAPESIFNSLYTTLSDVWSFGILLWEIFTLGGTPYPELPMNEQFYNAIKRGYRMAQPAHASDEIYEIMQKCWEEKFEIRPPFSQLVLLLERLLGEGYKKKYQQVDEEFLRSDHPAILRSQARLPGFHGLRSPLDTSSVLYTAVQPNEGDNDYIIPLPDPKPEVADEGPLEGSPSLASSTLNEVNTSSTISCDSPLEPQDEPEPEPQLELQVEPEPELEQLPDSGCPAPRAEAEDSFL

Consider `O[C@@H]1CCCC[C@H]1Nc1nc2ccc(Cn3cnc4cc(C5=CCOCC5)ccc43)cc2s1` [Example 174, (1R,2R)-2-((6-((5-(3,6-dihydro-2H-pyran-4-yl)-1H-benzo[d]imidazol-1-yl)methyl)benzo[d]thiazol-2-yl)amino)cyclohexanol], for which the IC50 on CSF1R [1] (setting [3]) and with M-NFS-60 cells (setting [4]) was ≤ 50 nM throughout. The Kd on PDGFRβ (competition binding) is ≤ 50 nM; on KIT (competition binding), ≤ 100 nM; at CSF1R [2] (competition binding) it was ≤ 5 nM; at FLT3 (competition binding), ≤ 200 nM.

Turning to `COc1ccccc1Nc1nc2ccc(Cn3cnc4cc(F)cnc43)cc2s1` [Example 197, 6-((6-fluoro-3H-imidazo[4,5-b]pyridin-3-yl)methyl)-N-(2-methoxyphenyl)benzo[d]thiazol-2-amine], the half-inhibitory concentration (IC50) was > 500 nM on CSF1R [1] (setting [3]) and 400 to 1500 nM with M-NFS-60 cells (setting [4]). Further, the Kd at PDGFRβ (competition binding) was 50 to 500 nM; at KIT (competition binding), 100 to 500 nM; on CSF1R [2] (competition binding), 5 to 20 nM; at FLT3 (competition binding) it was > 5000 nM.

Turning to `O[C@@H]1CCCC[C@H]1Nc1nc2ccc(Cn3cnc4cc(C5=CCNCC5)ccc43)cc2s1` [Example 225, (1R,2R)-2-((6-((5-(1,2,3,6-tetrahydropyridin-4-yl)-1H-benzo[d]imidazol-1-yl)methyl)benzo[d]thiazol-2-yl)amino)cyclohexanol], the 50% inhibitory concentration (IC50) was in the range of 50 to 200 nM at CSF1R [1] (setting [3]) and 400 to 1500 nM with M-NFS-60 cells (setting [4]). For the same compound, the dissociation constant Kd was ≤ 50 nM at PDGFRβ (competition binding), ≤ 100 nM at KIT (competition binding), ≤ 5 nM on CSF1R [2] (competition binding) and 200 to 1000 nM on FLT3 (competition binding).

“(1R,2R)-1-((6-((4-(1-methyl-1H-pyrazol-4-yl)-1H-imidazol-1-yl)methyl)benzo[d]thiazol-2-yl)amino)-2,3-dihydro-1H-inden-2-ol or (1R,2R)-1-((6-((5-(1-methyl-1H-pyrazol-4-yl)-1H-imidazol-1-yl)methyl)benzo[d]thiazol-2-yl)amino)-2,3-dihydro-1H-inden-2-ol [Example 32]”: the IC50 on CSF1R [1] (2 h compound, human M-CSF 50 ng/mL for 5 min) is > 500 nM; in the test with M-NFS-60 cells (72 hours incubation, M-CSF 20 ng/mL), > 1500 nM. Further, the equilibrium dissociation constant (Kd) was > 2000 nM on PDGFRβ, > 2000 nM at KIT, > 50 nM at CSF1R [2] and 200 to 1000 nM on FLT3.
